# Experimental data taken from patent publication US20030232994A1, “Bicyclic thiophene derivatives and combinatorial libraries thereof” (priority 2001, published 2003).
# Test system: Streptococcus pyogenes (ATCC# 97-03 14289)
# Assay: Anti-microbial screen (growth inhibition, OD 570 nm)
# Type: cell-based
# Details: growth in Todd Hewitt Broth, plates read at 570 nm at 0 time and 4 hours, color corrected
# Method: Streptococcus pyogenes (ATCC# 97-03 14289) was grown in Todd Hewitt Broth (THB) (Difco Laboratories #0492-17-6) overnight until reaching an optical density of (OD=0.636 @ 570 nm) by reading 0.1 ml in a 96 well microtiter plate in a Molecular Devices Thermomax. This preparation was kept frozen as stocks in 30% v/v glycerol in 1.5 ml aliquots at −70^mC. until use. Prior to experiments, […] aliquots were thawed and diluted into 50 ml 2×THB. 60 ul of this dilution was added to 92 wells of microtiter plate. To three wells THB (200 ul) was added to serve as a blank and a sterility control. Test compounds in DMSO and appropriate concentrations of DMSO were added to Growth/Solvent Controls at 0 time. Plates were read at 0 time at 570 nm in the Molecular Devices plate reader to obtain compounds correction factors for insoluble or colored compounds. Plates were read again at 4 hours.
# Percent inhibition is calculated with the following formulae: [drawing 4]
# Color correct=O.D. 0 hr−Blank 0 hr)−(Solvent Control 0 hr−Blank 0 hr)
# % Inhibition=100−O.D. test compound 4 hr−Blank 4 hr−color correct O.D. growth/solvent control 4 hr−Blank 4 hr
row,SMILES,% Inhibition
1,O=C(CCC1CCCC1)Nc1sc2c(c1C(=O)O)CCN(C(=O)c1ccccc1C(F)(F)F)C2,72.86%
2,COc1cccc(C(=O)Nc2sc3c(c2C(=O)O)CCN(C(=O)c2ccccc2SC)C3)c1,64.5%
3,CCCc1ccc(C(=O)Nc2sc3c(c2C(=O)O)CCN(C(=O)C2CCCCC2)C3)cc1,66.83%
4,O=C(Nc1sc2c(c1C(=O)O)CCN(C(=O)c1ccc(F)c(F)c1)C2)c1ccc2ccccc2c1,87.61%
5,CCCc1ccc(C(=O)Nc2sc3c(c2C(=O)O)CCN(C(=O)c2cc(OC)ccc2OC)C3)cc1,60.54%
6,Cc1ccc(C(=O)N2CCc3c(sc(NC(=O)c4ccccc4)c3C(=O)O)C2)cn1,82.41%
7,CC(C)CC(=O)N1CCc2c(sc(NC(=O)c3ccc(Cl)cc3)c2C(=O)O)C1,84.68%
8,O=C(Nc1sc2c(c1C(=O)O)CCN(C(=O)c1ccoc1)C2)c1ccccc1,94.53%
9,CCCSc1ncccc1C(=O)N1CCc2c(sc(NC(=O)c3ccc(CC)cc3)c2C(=O)O)C1,92.01%
10,O=C(Nc1sc2c(c1C(=O)O)CCN(C(=O)c1cccc(Cl)c1)C2)c1c(F)cccc1F,77.03%
11,CCCc1ccc(C(=O)Nc2sc3c(c2C(=O)O)CCN(C(=O)c2ccccc2Cl)C3)cc1,86.38%
12,O=C(O)c1c(NC(=O)C2CCCCC2)sc2c1CCN(C(=O)c1cc3ccccc3s1)C2,72.52%
13,O=C(O)c1c(NC(=O)[C@]23C[C@H]4C[C@@H](C[C@H](C4)C2)C3)sc2c1CCN(C(=O)c1ccccc1C(F)(F)F)C2,64.79%
14,O=C(CCC1CCCC1)Nc1sc2c(c1C(=O)O)CCN(C(=O)c1cccc3ccccc13)C2,82.49%
15,Cc1noc(C)c1C(=O)N1CCc2c(sc(NC(=O)c3ccccc3)c2C(=O)O)C1,96.39%
16,CCc1ccc(C(=O)Nc2sc3c(c2C(=O)O)CCN(C(=O)CCc2ccc(F)c(F)c2)C3)cc1,85.13%
17,O=C(Nc1sc2c(c1C(=O)O)CCN(C(=O)c1ccccc1Cl)C2)c1ccc2ccccc2c1,63.6%
18,Cc1ccc(C(=O)N2CCc3c(sc(NC(=O)c4ccc(Cl)cc4)c3C(=O)O)C2)c(C)c1,63.51%
19,Cc1ccc(C(=O)N2CCc3c(sc(NC(=O)c4ccc5ccccc5c4)c3C(=O)O)C2)cn1,62.67%
20,CC(C)(C)c1ccc(C(=O)Nc2sc3c(c2C(=O)O)CCN(C(=O)C2CCCCC2)C3)cc1,59.89%
21,CSc1ncccc1C(=O)N1CCc2c(sc(NC(=O)c3ccc4ccccc4c3)c2C(=O)O)C1,64.54%

row,SMILES,% Inhibition
1,O=C(Nc1sc2c(c1C(=O)O)CCN(C(=O)C1CCC1)C2)c1ccccc1,89.4%
2,O=C(Nc1sc2c(c1C(=O)O)CCN(C(=O)c1ccc(C(F)(F)F)cc1)C2)c1ccc2ccccc2c1,63.29%
3,CC(=O)Nc1ccc(C(=O)N2CCc3c(sc(NC(=O)c4ccccc4Cl)c3C(=O)O)C2)cc1,76.33%
4,Cc1ccc(C(=O)N2CCc3c(sc(NC(=O)c4ccc(C(C)(C)C)cc4)c3C(=O)O)C2)cn1,74.64%
5,COc1ccccc1C(=O)Nc1sc2c(c1C(=O)O)CCN(C(=O)CCc1ccc(F)c(F)c1)C2,60.86%
6,COc1ccccc1C(=O)Nc1sc2c(c1C(=O)O)CCN(C(=O)Cc1cc(C)ccc1C)C2,61.95%
7,O=C(Nc1sc2c(c1C(=O)O)CCN(C(=O)c1ccc(F)c(F)c1)C2)c1ccc(Cl)cc1,82.59%
8,O=C(Nc1sc2c(c1C(=O)O)CCN(C(=O)c1ccsc1)C2)c1ccco1,66.72%
9,Cc1c(F)cccc1C(=O)N1CCc2c(sc(NC(=O)c3ccco3)c2C(=O)O)C1,72.33%
10,COc1ccc(OC)c(C(=O)N2CCc3c(sc(NC(=O)c4ccc(C(C)(C)C)cc4)c3C(=O)O)C2)c1,77.92%
11,CCCc1ccc(C(=O)Nc2sc3c(c2C(=O)O)CCN(C(=O)c2cccc(OC)c2OC)C3)cc1,76.44%
12,CCCCOc1ccc(C(=O)Nc2sc3c(c2C(=O)O)CCN(C(=O)c2cc4ccccc4s2)C3)cc1,89.4%
13,CC(C)(C)c1ccc(C(=O)Nc2sc3c(c2C(=O)O)CCN(C(=O)CC2CCCC2)C3)cc1,79.23%
14,CCCc1ccc(C(=O)Nc2sc3c(c2C(=O)O)CCN(C(=O)c2ccccc2SC)C3)cc1,90.02%
15,O=C(Nc1sc2c(c1C(=O)O)CCN(C(=O)CCc1ccc(F)c(F)c1)C2)c1ccccc1Cl,94.52%
16,CCCSc1ncccc1C(=O)N1CCc2c(sc(NC(=O)c3ccc(Cl)cc3)c2C(=O)O)C1,66.79%
17,COc1cccc(C(=O)Nc2sc3c(c2C(=O)O)CCN(C(=O)Cc2cc(C)ccc2C)C3)c1,62.32%
18,COc1cccc(C(=O)Nc2sc3c(c2C(=O)O)CCN(C(=O)c2cccc4ccccc24)C3)c1,82.32%
19,CCc1ccc(C(=O)Nc2sc3c(c2C(=O)O)CCN(C(=O)c2cccnc2SC)C3)cc1,63.83%
20,C/C=C/C(=O)N1CCc2c(sc(NC(=O)c3ccccc3)c2C(=O)O)C1,94.99%
21,Cc1c(F)cccc1C(=O)N1CCc2c(sc(NC(=O)c3ccccc3Cl)c2C(=O)O)C1,62.62%

row,SMILES,% Inhibition
1,Cc1ccccc1C(=O)N1CCc2c(sc(NC(=O)CCC3CCCC3)c2C(=O)O)C1,76.07%
2,CC(C)C(=O)N1CCc2c(sc(NC(=O)c3ccccc3)c2C(=O)O)C1,90.8%
3,CC(C)CC(=O)N1CCc2c(sc(NC(=O)c3ccc4ccccc4c3)c2C(=O)O)C1,77.94%
4,CC(C)(C)c1ccc(C(=O)Nc2sc3c(c2C(=O)O)CCN(C(=O)c2ccsc2)C3)cc1,82.18%
5,Cc1ccccc1C(=O)N1CCc2c(sc(NC(=O)C3CCCCC3)c2C(=O)O)C1,69.29%
6,CC(CC(=O)Nc1sc2c(c1C(=O)O)CCN(C(=O)c1cccc3ccccc13)C2)CC(C)(C)C (centres unmarked),68.89%
7,O=C(Nc1sc2c(c1C(=O)O)CCN(C(=O)c1ccco1)C2)c1ccccc1Cl,78.12%
8,O=C(Nc1sc2c(c1C(=O)O)CCN(C(=O)c1cccc3ccccc13)C2)c1ccccc1Cl,65.9%
9,Cc1ccccc1C(=O)N1CCc2c(sc(NC(=O)c3ccco3)c2C(=O)O)C1,90.41%
10,CC(=O)Nc1ccc(C(=O)N2CCc3c(sc(NC(=O)c4ccccc4)c3C(=O)O)C2)cc1,90.8%
11,CC(CC(=O)Nc1sc2c(c1C(=O)O)CCN(C(=O)CC1CCCC1)C2)CC(C)(C)C (centres unmarked),81.9%
12,O=C(Nc1sc2c(c1C(=O)O)CCN(C(=O)c1ccc(C(F)(F)F)cc1)C2)c1ccccc1Cl,64.41%
13,O=C(Nc1sc2c(c1C(=O)O)CCN(C(=O)/C=C/c1ccccc1Cl)C2)c1c(F)cccc1F,77.66%
14,O=C(Nc1sc2c(c1C(=O)O)CCN(C(=O)c1cc3ccccc3s1)C2)c1ccco1,96.65%
15,CC(C)(C)c1ccc(C(=O)Nc2sc3c(c2C(=O)O)CCN(C(=O)c2ccc(Cl)cc2)C3)cc1,68.41%
16,O=C(Nc1sc2c(c1C(=O)O)CCN(C(=O)c1ccc(C(F)(F)F)cc1)C2)c1ccccc1,72.63%
17,CCc1ccc(C(=O)Nc2sc3c(c2C(=O)O)CCN(C(=O)c2ccccc2C(F)(F)F)C3)cc1,86.11%
18,CC(C)C(=O)N1CCc2c(sc(NC(=O)c3ccc4ccccc4c3)c2C(=O)O)C1,65.78%
19,CCc1ccc(C(=O)Nc2sc3c(c2C(=O)O)CCN(C(=O)c2ccc(Cl)cc2)C3)cc1,74.97%
20,CC(C)CC(=O)N1CCc2c(sc(NC(=O)c3ccccc3Cl)c2C(=O)O)C1,59.63%
